In patent US20120315290A1, “INHIBITORS OF LL-37 MEDIATED IMMUNE REACTIVITY TO SELF NUCLEIC ACIDS” (BOARD OF REGENTS, THE UNIVERSITY OF TEXAS SYSTEM, priority 2006, published 2012):
“Also recorded” adds a separate entry of the source.

What was measured:
[1] = system: B16 tumors; assay: Intratumoral or intramuscular injection, cytokine mRNA by real-time PCR; type: in vivo, C57BL/6 mice
Experimental: […] of LL-37, CpG-A or PBS alone was injected into B16 tumors grown for 7 days in Flt-L treated mice. Tumors were harvested after 6, 24, 48 and 72 h, total RNA was extracted and expression of indicated cytokines was measured by real-time PGR. Data represent expression relative to GAPDH RNA. Some mice were injected with […] of LL-37 for 3 times (t0, t24 and t48) and tumor was harvested at 72 h for RNA expression analysis.
LL-37, CpG, or saline (PBS) was injected into B16 tumors grown for 7 days in Flt-L treated mice. Tumors were harvested after 6, 24, 48 and 72 h, total RNA was extracted and expression of indicated cytokines was measured by real-time PGR. Data represent expression relative to GAPDH RNA. Data is representative of 5 mice.
[…] of LL-37 were injected into 7d-established B16 skin tumors and muscle tissue of the same mice. After 6 h tumor and muscle tissue were collected for RT-PCR analysis of IFN-a2 mRNA expression. Data represent expression relative to GAPDH RNA
In another set of experiments, 100 μg of LL-37, CpG-A or PBS alone was injected into B16 tumors grown for 7 days in Flt-L treated mice. Tumors were harvested after 6, 24, 48 and 72 h, total RNA was extracted and expression of indicated cytokines was measured by real-time PCR. […] Some mice were injected with 100 μg of LL-37 for 3 times (t0, t24 and t48) and tumor was harvested at 72 h or RNA expression analysis.
Intratumoral injection of LL-37 into native unmodified B16 melanoma induces potent type I IFN expression. 3×10^5 native B16 melanoma cells were inoculated into C57BL/6 mice. After 7 days, tumors were injected with 100 μg of LL-37, 40 μg CpG-2216 (CpG-A), or saline (PBS). Because LL-37-DNA binding (which will occur in the tumor) is optimal at a 3:1-5:1 ratio, we injected approximately 3 times more LL-37 than CpG-DNA. Tumors were harvested at 6 h, 24 h, 48 h, and 72 h after injection and total RNA was isolated and processed. Expression of IFN-α2 mRNA was measured by real-time PCR and normalized for expression of GAPDH mRNA.
LL-37 can induce type I IFN expression when injected into tumors but not into healthy tissue. Because LL-37 requires the presence of self-DNA released by dying cells to induce pDC activation to produce type I IFN, we next asked whether LL-37 could selectively induce type I IFN expression in tumors (containing a high degree of cells death) and not in healthy tissue. To address this question we injected LL-37 (100 μg) into subcutaneously implanted B16 tumors as well as healthy muscle tissue. 6 h after injection, tissues were collected and IFN-α2 mRNA expression was measured by real-time PCR, as described in C12.

[2] = system: plasmacytoid dendritic cells (pDC); assay: IFN-α and cytokine production by purified human pDC (ELISA of supernatants); type: cell-based
Text: PDC from healthy donors were purified from freshly collected buffy coats. Briefly, PBMC were isolated by Ficoll-Hypaque density gradient centrifugation (GE Healthcare, Piscatway, N.J.) followed by positive sorting using anti-BDCA4-conjugated magnetic microbeads (Miltenyi Biotec, Auburn, Calif.). The recovered cells were stained with PE-Cy5-conjugated anti-CD4, APC-conjugated CD11c, and a cocktail of FITC-conjugated anti-CD3, anti-CD14, anti-CD16, anti-CD15, anti-CD20 and anti-CD56 (Lineage-FITC) (BD Pharmingen, San Diego, Calif.). The CD4+CD11c-Lin- (pDC precursors) were isolated by cell sorting. Purity was routinely >99%. PDC (5-10×10^4/well) were cultured in 96-well round-bottom plates in RPMI 1640 (GIBCO, Carlsbad, Calif.) supplemented with 10% FCS (Atlanta Biologicals, Lawrenceville, Ga.). Where indicated, pDC were stimulated with CpGA (1 μM), CpGB (1 μM), R837 (10 ug/ml), IRS (4 uM), non-CpG sequence (4 uM), and different concentrations of LL-37 and of human genomic DNA. To prepare LL-37.DNA complexes, CpGB, huDNA, non-CpG and LL-37 were mixed by inversion and incubated for 30 min at room temperature before being added to the cells.
Supernatants samples were taken after 18-24 h after addition of the stimuli. Human IFN-α was measured using a human IFN-α ELISA kit (PBL Biomedical Laboratories, New Brunswick, N.J.) according to the company's instructions. IL-6 and TNF-α were detected using a kit for human IL6 and TNF-α (R&D Systems), respectively.

[3] = system: Thy1.2 positive CD4 T cells; assay: Adjuvant activity: expansion of transferred HNT-TCR Tg CD4+ T cells in draining LN; type: in vivo, BALB/c Thy1.1 mice; conditions: 35 μg s.c. with A20 lysate plus HNT peptide
Experimental: CD4+ T cells were purified from spleen and LN of HNT-TCR Tg mice (Thy 1.2), labeled with CFSE, and adoptively transferred (1×10^6) into BALB/c Thy1.1 mice. Next day, mice were immunized s.c. with (a) 5×10 ^6 A20 lysate plus HNT peptide and CpG-2216 ([…]); (b) A20 lysate plus HNT peptide and LL-37 ([…]); (c) A20F lysate plus HNT peptide; or (d) left untreated. Four days after immunization draining LN were harvested and Thy 1.2 positive CD4 T cells were measured by flow cytometry.
In another set of experiments, CD4+ T cells were purified from spleen and LN of HNT-TCR Tg mice (Thy 1.2), labeled with CFSE, and adoptively transferred (1×10^6) into BALB/c Thy1.1 mice. Next day, mice were immunized subcutaneously with 5×10^6 A20 lysate plus HNT peptide and CpG-2216 (35 μg), A20 lysate plus HNT peptide and LL-37 (35 μg), A20F lysate plus HNT peptide, or left untreated. Four days after immunization draining LN were harvested and Thy1.2 positive CD4 T cells were measured by flow cytometry.

[4] = system: human genomic DNA; assay: Complex formation with DNA (ethidium bromide intercalation, size exclusion HPLC); type: binding
Text: (A) Emission spectra of human genomic DNA intercalated with Ethimidium bromide in the presence of increasing doses of LL-37. (B) Size exclusion HPLC of LL-37 alone, mut-LL-37 alone or DNA premixed with LL-37 or mut-37. […] Absorbance scales are different to accommodate the DNA peak.

[5] = system: plasmacytoid dendritic cells (pDC); assay: IFN-α and cytokine production by purified human pDC (ELISA of supernatants); type: cell-based; remark: listed apart in the source

Sequence: LLGDFFRKSKEKIGKEFKRIVQRIKDFLRNLVPRTES [LL-37]
- IFN-α2 mRNA expression in tumor compared to CpG-A ([1]; 100 μg LL-37 vs 40 μg CpG-2216): more potent then the expression induced by CpG-A
- IFN-α2 mRNA expression in healthy muscle tissue ([1]; 100 μg injected, 6 h): not LL-37-injected healthy muscle tissue
- IFN-α2 mRNA expression in B16 tumor ([1]; 100 μg intratumoral): induced potent IFN-α2 mRNA expression; also recorded: IFN-α2 mRNA expression only in LL-37-injected tumors
- Expression of pro-inflammatory and T-cell-derived cytokines in tumor ([1]; 100 μg intratumoral, Flt-L treated mice, 6-72 h): induces expression of pro-inflammatory and T-cell-derived cytokines
- IFN-α in pDC stimulated with non-CpG-ODN sequences plus LL-37 [2]: induce significant levels of IFN-α
- IFN-α production by pDC stimulated with nucleic acid alone or combined with LL-37, as labelled [2]: converts genomic DNA of human and bacterial origin into potent IFN-α inducers
- IL-6 production by pDC ([2]; LL-37 10 μM): only induced IFN-α but not IL-6 or TNF-α
- TNF-α production by pDC ([2]; LL-37 10 μM): only induced IFN-α but not IL-6 or TNF-α
- IFN-α by pDC relative to phosphothiorate CpG-B alone ([2]; LL-37 added to phosphodiesteric or phosphothiorate CpG-B): approximately 10 fold
- IFN-α produced by pDC (mean) ([2]; pDC cultured with LL-37, 10% serum in culture medium, n=10): 950 pg/ml
- IFN-α produced by pDC (range) ([2]; pDC cultured with LL-37, n=10): 200-4000 pg/ml
- Induction of T cell mediated immunity (adjuvant activity) [3]: potent adjuvant activity
- Complex formation with DNA [4]: complexed with DNA
- Clump formation of pDC [5]: induced pDC to form clumps
- Maturation of pDC ([5]; not shown): did not induce maturation of pDC
